Laboratory results: ChEMBL document CHEMBL2311267, “Design, synthesis and biological evaluation of glucose-containing scutellarein derivatives as neuroprotective agents based on metabolic mechanism of scutellarin in vivo” (Bioorg Med Chem Lett, 2013)
Values after ≈ are worked out from the molar mass of the structure shown.

Experiments:
PC-12 [1] = assay: Neuroprotective activity in rat PC12 cells assessed as inhibition of H2O2-induced cytotoxicity at 25 uM after 3 hrs by MTT assay relative to control; assay type: functional; conditions: PC-12, 3 h
Plasma [2] = assay: Anticoagulant activity in New Zealand white rabbit platelet-poor plasma assessed as fibrinogen content at 100 uM; assay type: functional, Oryctolagus cuniculus
Plasma [3] = assay: Anticoagulant activity in New Zealand white rabbit platelet-poor plasma assessed as thrombin time at 100 uM; assay type: functional, Oryctolagus cuniculus
[4] = tested on: Radical scavenging activity; assay: Antioxidant activity assessed as inhibition of DPPH-radical production; assay type: functional
Plasma [5] = assay: Anticoagulant activity in New Zealand white rabbit platelet-poor plasma assessed as prothrombin time at 100 uM; assay type: functional, Oryctolagus cuniculus
PC-12 [6] = assay: Neuroprotective activity in rat PC12 cells assessed as inhibition of H2O2-induced cytotoxicity at 50 uM after 3 hrs by MTT assay relative to control; assay type: functional; conditions: PC-12, 3 h
Plasma [7] = assay: Anticoagulant activity in New Zealand white rabbit platelet-poor plasma assessed as activated partial thromboplastin time at 100 uM; assay type: functional, Oryctolagus cuniculus
[8] = Aqueous solubility of the compound by UV-Vis spectrophotometric analysis; assay type: physicochemical; conditions: water

| IC50 [4] [µM] | solubility [8] [µM] | SMILES | inhibition at 25 µM (PC-12 [1]) [%] | Activity (Plasma [2]) [g/L] | TT (Plasma [3]) [s] | PT (Plasma [5]) [s] | inhibition at 50 µM (PC-12 [6]) [%] | APTT (Plasma [7]) [s] |
| --- | --- | --- | --- | --- | --- | --- | --- | --- |
| 28.4 | 8.93 (≈ 4 µg/mL) | O=c1cc(-c2ccc(O)cc2)oc2cc(O[C@@H]3O[C@H](CO)[C@H](O)[C@H](O)[C@H]3O)c(O)c(O)c12 | 61 | 20.81 | 29.17 | 9.93 | 83.3 | 39.62 |
| 34.9 | 8.19 (≈ 3.67 µg/mL) | O=c1cc(-c2ccc(O)cc2)oc2cc(O[C@@H]3O[C@H](CO)[C@@H](O)[C@H](O)[C@@H]3O)c(O)c(O)c12 | 23.5 | 26.68 | 20.54 | 6.57 | 56.4 | 38.2 |
| 25.3 | 7.85 (≈ 3.52 µg/mL) | O=c1cc(-c2ccc(O)cc2)oc2cc(O[C@@H]3O[C@H](CO)[C@@H](O)[C@H](O)[C@H]3O)c(O)c(O)c12 | 65.5 | 32.43 | 18.13 | 7.81 | 79.9 | 43.06 |

| SMILES | IC50 [4] [µM] | solubility [8] [µM] | inhibition at 25 µM (PC-12 [1]) [%] | Activity (Plasma [2]) [g/L] | TT (Plasma [3]) [s] | PT (Plasma [5]) [s] | inhibition at 50 µM (PC-12 [6]) [%] | APTT (Plasma [7]) [s] |
| --- | --- | --- | --- | --- | --- | --- | --- | --- |
| O=C(O)[C@H]1O[C@@H](Oc2cc3oc(-c4ccc(O)cc4)cc(=O)c3c(O)c2O)[C@H](O)[C@@H](O)[C@@H]1O [SCUTELLARIN] | 26.8 | 7.53 (≈ 3.48 µg/mL) | 52.6 | 37.96 | 21.35 | 6.91 | 78.8 | 33.06 |
